The data set is described as follows: LogP by HPLC on reversed phase columns (EEC directive 79/831 Annex V.A8). The class given is physicochemical. As to conditions: method [a]: LC-UV, acidic range, 0.1% formic acid in water and acetonitrile, linear gradient 10% to 95% acetonitrile. The protocol: [table] If more than one LogP value is available within the same method, all the values are given and separated by “+”. Calibration was done with straight-chain alkan2-ones (with 3 to 16 carbon atoms) with known LogP values (measurement of LogP values using retention times with linear interpolation between successive alkanones). Lambda-max-values were determined using UV-spectra from 200 nm to 400 nm and the peak values of the chromatographic signals.

With `COc1ccc(Nc2ncc(-c3noc(C(F)(F)Cl)n3)cn2)cc1` [Compound I-66], the LogP is 3.79^[a]. To `FC(F)(Cl)c1nc(-c2cnc(Nc3ccc4c(c3)OCO4)nc2)no1` [Compound I-70] belongs 3.72^[a]; to `Cc1ccnc(Nc2ccc(-c3noc(C(F)(F)F)n3)cc2)n1` [Compound I-06], 3.83^[a]; to `Cc1ccnc(Nc2ccc(-c3noc(C(F)(F)Cl)n3)cc2)n1` [Compound I-40], 2.98^[a]. Consider `FC(F)(F)c1nc(-c2ccc(Nc3ccc(Cl)cc3)cc2)no1` [Compound I-38], for which the LogP was 5.00^[a]. To `FC(F)(F)c1nc(-c2cnc(NC3=NCCS3)nc2)no1` [Compound I-34] belongs 1.08^[a]; to `COc1cc(Nc2ncc(-c3noc(C(F)(F)Cl)n3)cn2)ccc1C` [Compound I-81], 4.51^[a]. Consider `COc1cccc(Nc2ncc(-c3noc(C(F)(F)F)n3)cn2)c1` [Compound I-45], for which the LogP is 3.76^[a].

As to `FC(F)(F)c1nc(-c2cnc(Nc3ccccc3)nc2)no1` [Compound I-61], the LogP is 3.74^[a].

As to `Fc1ccc(Nc2ncc(-c3noc(C(F)(F)Cl)n3)cn2)c(F)c1` [Compound I-75], the LogP was 3.92^[a].

For `FC(F)(Cl)c1nc(-c2cnc(Nc3ccon3)nc2)no1` [Compound I-64], the LogP was 2.71^[a]. For `Fc1ccc(Nc2ncc(-c3noc(C(F)(F)F)n3)cn2)cc1` [Compound I-63], the LogP is 3.79^[a].

For the molecule `FC(F)(Cl)c1nc(-c2cnc(NC3(c4ccccn4)CCC3)nc2)no1` [Compound I-24], the LogP was 2.13^[a]. To `FC(F)(F)c1nc(-c2cnc(NC3Cc4ccccc4C3)nc2)no1` [Compound I-26] belongs 4.27^[a]; to `FC(F)(F)c1nc(-c2cnc(NC3CCOCC3)nc2)no1` [Compound I-16], 2.57^[a]. In the case of `FC(F)(F)c1nc(-c2cnc(NC3CC3C(F)(F)F)nc2)no1` (stereo not shown) [Compound I-21], the LogP is 3.46^[a]. To `Cn1ccnc1Nc1ncc(-c2noc(C(F)(F)F)n2)cn1` [Compound I-88] belongs 1.08^[a]. To `FC(F)(F)c1nc(-c2cnc(NC3CCCC3)nc2)no1` [Compound I-08] belongs 3.83^[a]; to `N#CCc1ccc(Nc2ncc(-c3noc(C(F)(F)Cl)n3)cn2)cc1` [Compound I-84], 3.46^[a]. To `FC(F)(F)c1nc(-c2cnc(Nc3ccc(S(F)(F)(F)(F)F)cc3)nc2)no1` [Compound I-55] belongs 4.80^[a]; to `FC(F)(F)c1cccc(Nc2ccc(-c3noc(C(F)(F)F)n3)cc2)c1` [Compound I-36], 5.08^[a]. For the molecule `CC1(Nc2ncc(-c3noc(C(F)(F)F)n3)cn2)CC1` [Compound I-25], the LogP was 3.04^[a].

In the case of `FC(F)(F)c1nc(-c2cnc(Nc3ccc4c(c3)OCO4)nc2)no1` [Compound I-49], the LogP is 3.50^[a]. To `FC(F)(F)c1cccc(Nc2ncc(-c3noc(C(F)(F)F)n3)cn2)c1` [Compound I-53] belongs 4.46^[a]; to `FC(F)(F)c1nc(-c2cnc(Nc3ccccc3Cl)nc2)no1` [Compound I-47], 4.20^[a]. Turning to `FC(F)(Cl)c1nc(-c2cnc(Nc3nc4c(s3)CCC4)nc2)no1` [Compound I-89], the LogP is 4.03^[a]. Turning to `CC(=O)N1CCC(Nc2ncc(-c3noc(C(F)(F)F)n3)cn2)CC1` [Compound I-13], the LogP is 2.17^[a].

On to `FC(F)(Cl)c1nc(-c2cnc(NC3(c4ccccc4)CC3)nc2)no1` [Compound I-29], for which the LogP was 3.94^[a]. On to `FC(F)(Cl)c1nc(-c2cnc(NC3CCOC3)nc2)no1` (stereo not shown) [Compound I-11], for which the LogP was 2.55^[a]. In the case of `FC(F)(F)c1nc(-c2cnc(NC3(c4ccccc4)CC3)nc2)no1` [Compound I-17], the LogP was 3.74^[a]. Consider `Fc1cccc(Nc2ncc(-c3noc(C(F)(F)F)n3)cn2)c1` [Compound I-44], for which the LogP is 3.94^[a].

The values are drawn from US11266147B2, “Fungicidal oxadiazoles” (Bayer Aktiengesellschaft, priority 2017, dated 2022).
